# From article PMC7194099, “Transient expression and purification of β-caryophyllene synthase in Nicotiana benthamiana to produce β-caryophyllene in vitro” (PeerJ, 2020)
# Target: T1, AaCPS1 (β-caryophyllene synthase) (Artemisia annua, UniProt A0A059PYD5)
# T1 construct: gene CPS; C-terminal 6xHis tag kept; transient expression in Nicotiana benthamiana (pEAQ-HT)
# Assay: GC-MS of dodecane overlay
# Format: biochemical
# Details: 20 µM FPP, 20 mM MgCl2, 20 mM Tris-HCl pH 7.0, 10% glycerol, 2 mM DTT, 30 °C, 4 h; products β-caryophyllene (main) and α-humulene
# T1 sequence (A0A059PYD5 1-550): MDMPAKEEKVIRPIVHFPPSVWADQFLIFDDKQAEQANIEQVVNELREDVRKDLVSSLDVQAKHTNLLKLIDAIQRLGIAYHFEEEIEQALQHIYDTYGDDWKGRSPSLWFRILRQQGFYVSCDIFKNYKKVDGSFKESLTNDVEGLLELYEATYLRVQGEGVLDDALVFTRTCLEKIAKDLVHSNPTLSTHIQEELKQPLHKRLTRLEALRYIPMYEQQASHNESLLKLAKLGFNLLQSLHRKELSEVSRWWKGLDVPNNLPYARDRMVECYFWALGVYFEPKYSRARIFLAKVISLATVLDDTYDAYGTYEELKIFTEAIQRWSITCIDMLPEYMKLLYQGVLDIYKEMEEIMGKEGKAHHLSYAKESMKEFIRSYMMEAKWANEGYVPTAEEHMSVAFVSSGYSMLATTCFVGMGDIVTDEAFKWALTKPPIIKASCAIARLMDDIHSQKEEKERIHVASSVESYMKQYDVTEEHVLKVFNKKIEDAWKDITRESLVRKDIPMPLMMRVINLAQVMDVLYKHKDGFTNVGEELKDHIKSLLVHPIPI
compound,measurement,value
"CC(C)=CCC/C(C)=C/CC/C(C)=C/COP(=O)(O)OP(=O)(O)O [FPP, farnesyl diphosphate]",GC-MS of dodecane overlay,the purified AaCPS1 was incubated with the substrate FPP
